Laboratory results taken from ChEMBL document CHEMBL1146159, “Design, synthesis, and preliminary biological evaluation of novel ethyl 1-(2'-hydroxy-3'-aroxypropyl)-3-aryl-1H-pyrazole-5-carboxylate” (Bioorg Med Chem Lett, 2006).
pIC50: −log10 of the molar value. Activity calls are given as the source filed them. The calls are words filed in the database; no cut-off is given here.

Columns and labels:
Type in all cases: functional, cell-based
[1] = system: A549; assay: Growth inhibition in A549 cells after 48 hrs by MTT assay; conditions: Homo sapiens, A549, 48 h
[2] = system: A549; assay: Growth inhibition in A549 cells at 100 uM by MTT assay; conditions: Homo sapiens
[3] = system: A549; assay: Growth inhibition in A549 cells at 50 uM by MTT assay; conditions: Homo sapiens
[4] = system: A549; assay: Growth inhibition in A549 cells at 25 uM after 48 hrs by MTT assay; conditions: Homo sapiens
[5] = system: A549; assay: Growth inhibition in A549 cells at 12.5 uM after 48 hrs by MTT assay; conditions: Homo sapiens
[6] = system: A549; assay: Growth inhibition in A549 cells at 25 uM after 24 hrs by MTT assay; conditions: Homo sapiens
[7] = system: A549; assay: Effect on cell morphology in A549 cells assessed as induction of differentiation at 50 uM; conditions: Homo sapiens
[8] = system: A549; assay: Effect on cell morphology in A549 cells assessed as induction of cellular vacuolation; conditions: Homo sapiens

SMILES | pIC50 [1] | Activity [2] | Activity [3] | Activity [4] | Activity [5] | Activity [6] | Activity [7] | Activity [8]
CCOC(=O)c1cc(-c2ccc(Cl)cc2)nn1CC(O)COc1ccccc1 (stereo unspecified) | 4.57 | Active | Active | inactive | Active | Active | Active | –
CCOC(=O)c1cc(-c2ccc(OC)cc2)nn1CC(O)COc1ccccc1 (stereo unspecified) | 4.48 | Active | Active | Active | – | – | – | –
CCOC(=O)c1cc(-c2ccc(OC)cc2)nn1CC(O)COc1ccc([N+](=O)[O-])cc1 (stereo unspecified) | 4.36 | Active | Active | – | – | – | – | –
CCOC(=O)c1cc(-c2ccc(Cl)cc2)nn1CC(O)COc1ccc(Cl)cc1 (stereo unspecified) | 4.48 | Active | Active | Active | – | – | – | Active
CCOC(=O)c1cc(-c2ccccc2)nn1CC(O)COc1ccccc1 (stereo unspecified) | 4.19 | Active | Active | Active | – | – | – | –
CCOC(=O)c1cc(-c2ccc(OC)cc2)nn1CC(O)COc1ccccc1[N+](=O)[O-] (stereo unspecified) | 4.35 | Active | Active | – | – | – | – | –
CCOC(=O)c1cc(-c2ccc(Cl)cc2)nn1CC(O)COc1ccccc1OC (stereo unspecified) | 4.49 | Active | Active | Active | – | – | – | –
CCOC(=O)c1cc(-c2ccccc2)nn1CC(O)COc1ccc([N+](=O)[O-])cc1 (stereo unspecified) | 4.32 | Active | Active | inactive | – | Active | – | –

Further compounds by rising pIC50 [1], results first:

pIC50 [1] | SMILES | Activity [2] | Activity [3] | Activity [4] | Activity [5] | Activity [6] | Activity [7] | Activity [8]
4.17 | CCOC(=O)c1cc(-c2ccc(OC)cc2)nn1CC(O)COc1ccccc1OC (stereo unspecified) | Active | Active | – | – | – | – | –
4.23 | CCOC(=O)c1cc(-c2ccccc2)nn1CC(O)COc1ccc(Cl)cc1 (stereo unspecified) | Active | Active | – | – | – | – | –
4.24 | CCOC(=O)c1cc(-c2ccccc2)nn1CC(O)COc1ccccc1OC (stereo unspecified) | Active | Active | inactive | – | Active | – | –
4.35 | CCOC(=O)c1cc(-c2ccc(Cl)cc2)nn1CC(O)COc1ccc([N+](=O)[O-])cc1 (stereo unspecified) | Active | Active | inactive | Active | Active | – | –
4.42 | CCOC(=O)c1cc(-c2ccc(OC)cc2)nn1CC(O)COc1ccc(Cl)cc1 (stereo unspecified) | Active | Active | – | – | – | – | –
4.52 | CCOC(=O)c1cc(-c2ccccc2)nn1CC(O)COc1ccccc1[N+](=O)[O-] (stereo unspecified) | Active | Active | inactive | – | Active | – | –
4.59 | CCOC(=O)c1cc(-c2ccc(Cl)cc2)nn1CC(O)COc1ccccc1[N+](=O)[O-] (stereo unspecified) | Active | Active | inactive | Active | Active | – | –
